Measurements: publication PMC4450660, “Biochemical and Structural Characterization of Enolase from Chloroflexus aurantiacus: Evidence for a Thermophilic Origin” (Frontiers in Bioengineering and Biotechnology, 2015)

Biological target: T1, EnoCa (enolase-1 from Chloroflexus aurantiacus) (Chloroflexus aurantiacus, UniProt A9WCM4)
T1 construct: gene eno; native protein purified from C. aurantiacus cells, untagged; homodimer, subunit ~46 kDa, total ~92-96 kDa
Assay: X-ray crystal structure of the complex
Type: binding
Conditions: active site, closed conformation, second Mg2+ modelled; crystals at pH 9.0

T1 sequence (A9WCM4 whole entry): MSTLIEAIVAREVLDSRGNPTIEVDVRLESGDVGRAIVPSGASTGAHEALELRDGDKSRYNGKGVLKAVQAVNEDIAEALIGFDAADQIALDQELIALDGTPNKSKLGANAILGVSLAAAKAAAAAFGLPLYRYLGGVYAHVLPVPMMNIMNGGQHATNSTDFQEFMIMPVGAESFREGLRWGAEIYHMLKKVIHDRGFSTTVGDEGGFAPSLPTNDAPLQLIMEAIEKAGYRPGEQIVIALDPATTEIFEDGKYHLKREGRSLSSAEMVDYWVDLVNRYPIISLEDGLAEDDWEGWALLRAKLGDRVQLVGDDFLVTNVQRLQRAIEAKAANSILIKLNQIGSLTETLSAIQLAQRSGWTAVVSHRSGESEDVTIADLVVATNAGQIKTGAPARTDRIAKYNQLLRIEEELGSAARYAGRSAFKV

## C=C(OP(=O)(O)O)C(=O)O [phosphoenolpyruvate]
  X-ray crystal structure of the complex: PEP itself is bound by Glu165, Glu206, Lys338, Arg367, and Ser368
